Laboratory results: patent US20200338028A1, “BENZENESULFONAMIDE DERIVATIVES AND METHOD FOR MODULATING LIPID RAFT” (Gongwin Biopharm Co., Ltd., priority 2017, published 2020)
Entries after “also recorded” stand apart in the source; their conditions may differ.

Legend:
DU-145 cells [1] = assay: lipid raft isolation (sucrose gradient) and Western blot of raft-associated kinases; assay type: cell-based, human; conditions: DU-145, 6 mM p-TSA, 2 h
From the text: (§1) Lipid rafts are plasma membranes of cells containing glycosphingolipids and a number of receptors arranged in specific glycolipoprotein microdomains which serve as organizing centers to gather signaling molecules, membrane fluid and protein trafficking for a variety of cellular processes. […] To examine the effect of lipid raft on p-TSA action, lipid rafts were isolated from whole cells by sucrose gradient fractionation with subsequent analysis of several serine/threonine kinases localization in raft fractions by immunoblotting. The detailed method for lipid raft isolation was performed as follows. Lipid rafts were isolated using lysis conditions and centrifugation on discontinuous sucrose gradients. Briefly, after the treatment of cells with or without p-TSA, the cells were washed with ice-cold PBS and lysed for 30 min on ice with 1% Triton X-100 in TNEV buffer (10 mM Tris-HCl, pH 7.5, 150 mM NaCl, 5 mM EDTA, 1 mM Na3VO4 and 1 mM PMSF). Cells were homogenized with 15 strokes with a Biovision tissue homogenizer. After centrifuging at 200 g for 8 min, the nuclei and cellular debris were pelleted and 400 μl supernatant was mixed with 400 μl 85% (w/v) sucrose in TNEV buffer, and then transferred to the bottom of a Beckman 13×51 mm centrifuge tube. The diluted lysate was overlaid with 2.4 ml 35% (w/v) sucrose in TNEV buffer and finally 1.4 ml 5% (w/v) sucrose in TNEV buffer. The samples were centrifuged in an SW55 rotor at 200,000 g for 18 h at 4° C. in a Beckman Optima L100K ultracentrifuge (Beckman Instruments, Palo Alto, Calif., United States). Then, fractions in each volume of 350 μl were collected from the top gradient. 15 μl of each fraction was subjected to Western blot analysis to determine the location of target proteins in the discontinuous sucrose gradient.

PC-3 cells [2] = assay: as above; assay type: cell-based, human; conditions: PC-3, 6 mM p-TSA, 2 h
From the text: as §1

[3] = test system: PC-3-derived cancer xenografts; assay: in vivo anti-tumor xenograft model; set-up: species or system nude mice
Protocol: In vivo anti-tumor study was performed as follows. PC-3-derived cancer xenografts in nude mice were used as an in vivo model. The nude mice were subcutaneously injected with PC-3 cells (10^7 cell/mouse). The tumors were measured every day. When the tumors reached a volume of 100 mm^3, the mice were divided into two groups (n=8-10), and compound treatment was initiated. p-TSA was dissolved in 15% 1-methyl-2-pyrrolidone (NMP). Vehicle (15% NMP) or p-TSA was given intraperitoneally every other day. The length (1) and width (w) of the tumor were measured, and tumor volume was calculated as lw^2/2. The protocols of the in vivo study were approved by the Animal Care and Use Committee at National Taiwan University. All animal procedures and protocols were approved by AAALAC-accredited facility. Data were presented as mean±standard error of the mean (SEM) for the indicated number of separate experiments. The statistical analysis was performed using one way analysis of variance (ANOVA) for multiple sample sets. Single comparisons of appropriate groups were done with Student's t-test. P-values less than 0.05 are statistically considered significant.
The tumor xenograft in nude mice models after subcutaneously inoculated PC-3 cells was used to conduct in vivo efficacy evaluation of p-TSA. The operator was fully blinded to the experimental treatment. The initial intraperitoneal injection of 75 mg/kg p-TSA was given when the tumor reached a size of 100 mm^3 (p-TSA group 121±40 mm^3 v.s. control group 101±48 mm^3). First, the tumor growth inhibition treatment/control (T/C) ratio was used to quantify the treatment effect of p-TSA in the mouse xenograft model.

DU-145 cells [4] = assay: CFSE staining, flow cytometric proliferation index; assay type: cell-based, human; conditions: DU-145, 48 h
Protocol: (§2) The anti-proliferative effect was further examined by CFSE staining. CFSE is a fluorescent cell staining dye for cell-tracking, and it was conjugated to intracellular proteins and was evenly inherited by divided cells after cell proliferation. Consequently, the fluorescence-staining was distributed to later generations of cells with the passage of time. The process for CFSE staining was performed as follows. CFSE was dissolved in DMSO to constitute a storage solution of 10 mM and was kept at −20° C. until use. The PC-3 and DU-145 cells were adjusted to a density of 10^6 cells/ml and were treated with CFSE at a final concentration of 10 μM in tubes. After incubation at 37° C. for 10 min, labeling was blocked by the addition of RPMI medium with 10% FBS. The tubes were placed on ice for 5 min and then washed. After centrifugation of the tubes, the cells were seeded in RPMI medium with 10% FCS in the absence or presence of p-TSA for 48 h at 37° C. under 5% CO2/95% air condition. The fluorescence intensity was determined by flow cytometric analysis. The cell proliferation was assessed by monitoring the decrease in label intensity in daughter cells. The proliferation index and the cell populations of parent or different generations were calculated by using Modfit LT Version 3.2 and WinList Version 5.0 software.

PC-3 cells [5] = assay: CFSE staining, flow cytometric proliferation index; assay type: cell-based, human; conditions: PC-3, 48 h
Protocol: as §2

loss of body weight versus control group ([3]; 75 mg/kg intraperitoneally, FIG. 7C): no significant between-group difference | day on which the group reached a 20% loss of body weight ([3]; 75 mg/kg intraperitoneally, control group 12th day): 22 days
Structure (SMILES): Cc1ccc(S(N)(=O)=O)cc1 [p-TSA, para-toluenesulfonamide]
expressions of raft-associated total and phosphorylated kinases (Akt, mTOR, p70S6K) (DU-145 cells [1]): decreased expressions | raft-associated phosphorylated p70S6K expression (DU-145 cells [1]): completely abolished | expressions of raft-associated total and phosphorylated kinases (Akt, mTOR, p70S6K) (PC-3 cells [2]): decreased expressions | raft-associated phosphorylated p70S6K expression (PC-3 cells [2]): completely abolished | median tumor size ([3]; 75 mg/kg intraperitoneally): 403 mm^3 | tumor growth inhibition treatment/control (T/C) ratio ([3]; 75 mg/kg intraperitoneally every other day, end of treatment, FIG. 7A): 0.44 | tumor growth rate ([3]; 75 mg/kg intraperitoneally, FIG. 7B): 16.8 mm^3/day | inhibition by median tumor size ([3]; 75 mg/kg intraperitoneally, versus 765 mm^3 in the control group): 47% | inhibition of tumor growth rate ([3]; 75 mg/kg intraperitoneally, versus control group 37.8 mm^3/day): 56% | p-Akt expression in tumors ([3]; six randomly selected tumors, FIG. 7D, listed as PTS): significant inhibitory effect; also recorded: significantly inhibited | proliferation index based on CFSE staining (DU-145 cells [4]): concentration-dependent inhibition | proliferation index based on CFSE staining (PC-3 cells [5]): concentration-dependent inhibition
